Patent publication US20170095565A1, “CHEMICALLY MODIFIED SMALL MOLECULES” (Nektar Therapeutics, priority 2003, published 2017)
≈ marks a conversion by molar mass, not a printed value. Where two headings read alike, the source gives them in different places.

Experiments:
[1] = target: Mu-opiate (Homo sapiens, UniProt P35372); conditions: read-out: IC50, Mu-opiate binding activity
[2] = Solubility of tested compounds (Table 1)
[3] = target: μ-Opiate Receptors (Homo sapiens, UniProt P35372); experiment: biochemical; assay type: biochemical
Sequence of μ-Opiate Receptors (P35372 whole entry): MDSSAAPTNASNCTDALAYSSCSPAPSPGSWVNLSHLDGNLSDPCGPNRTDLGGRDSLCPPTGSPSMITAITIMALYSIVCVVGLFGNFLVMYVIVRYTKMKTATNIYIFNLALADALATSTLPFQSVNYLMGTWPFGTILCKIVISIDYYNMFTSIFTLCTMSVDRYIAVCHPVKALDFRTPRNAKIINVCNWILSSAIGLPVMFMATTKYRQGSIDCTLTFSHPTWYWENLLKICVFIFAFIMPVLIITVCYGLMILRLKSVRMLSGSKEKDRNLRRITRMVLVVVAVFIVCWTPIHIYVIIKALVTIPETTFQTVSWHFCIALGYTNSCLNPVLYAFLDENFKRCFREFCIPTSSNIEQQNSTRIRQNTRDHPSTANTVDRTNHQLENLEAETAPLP
Excerpt: In the table above, for each compound, the bioactivity is provided as a measure of the relative bioactivity of each of the various PEG conjugates in comparison to parent drug. The EC50 is the concentration of agonist that provokes a response halfway between the baseline and maximum response in a standard dose-response curve.

[4] = Oral bioavailability: plasma concentration after oral gavage; assay type: in vivo, Sprague Dawley rats; conditions: rats
Protocol: Female Sprague Dawley® rats (150-200 g) were obtained from Harlan Labs. […] The animals were fasted overnight (day −1), but water was provided ad libitum.
On the morning of dosing (day 0), each rat was weighed and the cannulas flushed with heparin (1000 U/mL). With the aid of a feeding tube, the animals were then dosed orally (gavage) with aqueous formulations containing either the PEGylated or the free drug. The dose was determined on a mg/kg body weight basis. […] At specific time intervals (1, 2 and 4 hours), blood samples (approximately 1.0 mL) were removed through the cannula, placed in 1.5 mL centrifuge tubes containing 14 μL of heparin, mixed and centrifuged to separate the plasma. The plasma samples were frozen (<−70° C.) until assayed. The plasma samples were purified by a precipitation technique and the analyte extracted and assayed using a high performance liquid chromatography (LC) method with a mass selective detector (MSD). […] When appropriate, an internal standard was used in the analysis.

[5] = In situ brain perfusion, blood-brain barrier uptake; conditions: for Normalized Brain Uptake Rate (Mean ± SD): normalized to 5 μM dosing solution, 20 mL/min perfusion rate, 30 sec; for Reduction in brain uptake rate (BUR) compared to the parent compound (factor / times): vs parent drug
Protocol: As utilized for these experiments, the in situ brain perfusion technique employed the intact rat brain to (i) determine drug permeation across the BBB under normal physiological conditions, and (ii) to study transport mechanisms such as passive diffusion verses carrier mediated transport.
Perfusion was performed using the single time-point method. Briefly, the perfusion fluid (perfusate) containing the test compound(s) was infused into rats via the left external carotid artery at a constant rate by an infusion pump (20 mL/min). Perfusion flow rate was set to completely take over fluid flow to the brain at normal physiologic pressure (80-120 mm Hg). The duration of the perfusion was 30 seconds. Immediately following the perfusion, the brain vasculature was perfused for an additional 30 seconds with drug-free perfusate to remove residual drug. The pump was turned off and the brain was then immediately removed from the skull. Left-brain samples from each rat were first weighed and then homogenized using a Polytron homogenizer. Four (4) mL of 20% methanol was added to each rat brain for homogenization. After homogenization, the total volume of homogenate was measured and recorded.
A measured amount of the homogenate was diluted with organic solvent and subsequently centrifuged. The supernatant was removed, evaporated in a stream of nitrogen and reconstituted and analyzed by LC/MS/MS. Quantification of drug concentrations in brain homogenate was performed against calibration curves generated by spiking the drugs into blank (i.e. drug-free) brain homogenate. Analysis of the drug concentrations in brain homogenates was carried out in triplicate, and the values were used to calculate the brain uptake rate in pmole per gram of rat brain per second of perfusion.
All the data was normalized to a 5 μM dosing solution at 20 mL/min perfusion rate for 30 sec.

[6] = PEGylated compounds normalized to 1 mg/kg dose

Sequence of Mu-opiate (P35372 whole entry): as above

Structure (SMILES): C=CCN1CC[C@]23c4c5ccc(O)c4O[C@H]2[C@@H](OCCOCCOCCOCCOCCOCCOCCOCCOCCOC)CC[C@@]3(O)[C@H]1C5 (single isomer, unassigned) [α isomer of PEG9-Nal]
- IC50 ([1]; naloxone series of compounds): 64.4 nM
- Solubility [2]: soluble

Structure (SMILES): C=CCN1CCC23c4c5ccc(O)c4OC2C(O)CCC3(O)C1C5 (single isomer, unassigned) [α-6-naloxol, reference compound]
- EC50 ([3]; μ-opiate receptors, in-vitro): 2 nM

Structure (SMILES): C=CCN1CCC23c4c5ccc(O)c4OC2C(O)CCC3(O)C1C5 (single isomer, unassigned) [β-6-naloxol, reference compound]
- EC50 ([3]; μ-opiate receptors, in-vitro): 10.8 nM

Structure (SMILES): CC1=C(/C=C/C(C)=C/C=C/C(C)=C\C(=O)O)C(C)(C)CCC1 [13-cis-Retinoic Acid, 13-cis-retinoic acid, reference compound]
- Mean Plasma Concentration ± SD, 1 hr ([4]; normalized to a 6 mg/kg dose): 43.3 ± 24.0 ng/mL
- Mean Plasma Concentration ± SD, 2 hr ([4]; normalized to a 6 mg/kg dose): 23.3 ± 14.8 ng/mL
- Normalized Brain Uptake Rate (Mean ± SD) [5]: 102.54 ± 37.31 pmole/gm brain/sec
- Solubility [2]: 0.47 µM (≈ 0.141 µg/mL)

Structure (SMILES): C=CCN1CC[C@]23c4c5ccc(O)c4O[C@H]2C(=O)CC[C@@]3(O)[C@H]1C5 [Naloxone, naloxone, reference compound]
- Normalized Brain Uptake Rate (Mean ± SD) [5]: 15.64 ± 3.54 pmole/gm brain/sec
- Percentage of Active Remaining After Incubation with Liver Microsomes (0 min): 100.0%
- Percentage of Active Remaining After Incubation with Liver Microsomes (20 min): 47.1%
- Percentage of Active Remaining After Incubation with Liver Microsomes (40 min): 27.6%
- Percentage of Active Remaining After Incubation with Liver Microsomes (60 min): 15.6%

Structure (SMILES): COCCOCCOCCNC(=O)\C=C(C)/C=C/C=C(C)/C=C/C1=C(C)CCCC1(C)C [PEG3-13-cis-RA, CH3(OCH2CH2)3—NH-13-cis-Retinamide]
- Mean Plasma Concentration ± SD, 1 hr ([4]; normalized to a 6 mg/kg dose): 131.8 ± 55.0 ng/mL
- Mean Plasma Concentration ± SD, 2 hr ([4]; normalized to a 6 mg/kg dose): 158.0 ± 133.0 ng/mL
- Normalized Brain Uptake Rate (Mean ± SD) [5]: 79.65 ± 20.91 pmole/gm brain/sec
- Solubility [2]: 3.13 µM (≈ 1.39 µg/mL)

Structure (SMILES): C=CCN1CC[C@]23c4c5ccc(O)c4O[C@H]2C(OCCOCCOCCOC)CC[C@@]3(O)[C@H]1C5 (some centres unmarked) [PEG3-Nal, 6-CH3—(OCH2CH2)3-Naloxol]
- Normalized Brain Uptake Rate (Mean ± SD) [5]: 4.67 ± 3.57 pmole/gm brain/sec

Structure (SMILES): COCCOCCOCCOCCOCCNC(=O)\C=C(C)/C=C/C=C(C)/C=C/C1=C(C)CCCC1(C)C [PEG5-13-cis-RA, CH3—(OCH2CH2)5—NH-13-cis-retinamide]
- Mean Plasma Concentration ± SD, 1 hr ([4]; normalized to a 6 mg/kg dose): 77.7 ± 31.6 ng/mL
- Mean Plasma Concentration ± SD, 2 hr ([4]; normalized to a 6 mg/kg dose): 61.6 ± 57.1 ng/mL
- Normalized Brain Uptake Rate (Mean ± SD) [5]: 58.49 ± 13.44 pmole/gm brain/sec
- Solubility [2]: soluble

Structure (SMILES): C=CCN1CC[C@]23c4c5ccc(O)c4O[C@H]2[C@H](OCCOCCOCCOCCOCCOC)CC[C@@]3(O)[C@H]1C5 [PEG5-Nal, α,β-6-CH3—(OCH2CH2)5—O-naloxol]
- Normalized Brain Uptake Rate (Mean ± SD) [5]: 0.96 ± 0.36 pmole/gm brain/sec
- Reduction in brain uptake rate (BUR) compared to the parent compound (factor / times) [5]: 16

Structure (SMILES): COCCOCCOCCOCCOCCOCCOCCNC(=O)\C=C(C)/C=C/C=C(C)/C=C/C1=C(C)CCCC1(C)C [PEG7-13-cis-RA, CH3—(OCH2CH2)7—NH-13-cis-Retinamide]
- Mean Plasma Concentration ± SD, 1 hr ([4]; normalized to a 6 mg/kg dose): 44.0 ± 13.0 ng/mL
- Mean Plasma Concentration ± SD, 2 hr ([4]; normalized to a 6 mg/kg dose): 38.7 ± 4.2 ng/mL
- Normalized Brain Uptake Rate (Mean ± SD) [5]: 24.15 ± 1.49 pmole/gm brain/sec
- Reduction in brain uptake rate (BUR) compared to the parent compound (factor / times) [5]: four
- Solubility [2]: 58.3 µM (≈ 36.3 µg/mL)

Structure (SMILES): C=CCN1CC[C@]23c4c5ccc(O)c4O[C@H]2[C@H](OCCOCCOCCOCCOCCOCCOCCOC)CC[C@@]3(O)[C@H]1C5 [PEG7-Nal, α,β-6-CH3—(OCH2CH2)7—O-naloxol]
- Reduction in brain uptake rate (BUR) compared to the parent compound (factor / times) [5]: 16

Structure (SMILES): COCCOCCOCCOCCOCCOCCOCCOCCOCCOCCOCCNC(=O)\C=C(C)/C=C/C=C(C)/C=C/C1=C(C)CCCC1(C)C [PEG11-13-cis-RA, CH3—(OCH2CH2)11—NH-13-cis-Retinamide]
- Mean Plasma Concentration ± SD, 1 hr ([4]; normalized to a 6 mg/kg dose): 21.8 ± 7.1 ng/mL
- Mean Plasma Concentration ± SD, 2 hr ([4]; normalized to a 6 mg/kg dose): 58.2 ± 43.5 ng/mL
- Normalized Brain Uptake Rate (Mean ± SD) [5]: 17.77 ± 1.68 pmole/gm brain/sec
- Reduction in brain uptake rate (BUR) compared to the parent compound (factor / times) [5]: five
- Solubility [2]: soluble

Structure (SMILES): C=CCN1CC[C@]23c4c5ccc(O)c4O[C@H]2[C@@H](OCCOCCOCCOC)CC[C@@]3(O)[C@H]1C5 [α-PEG3-Nal, α-6-CH3—(OCH2CH2)3—O-naloxol]
- Mean Plasma Concentration ± SD, 1 hr [4, 6]: 37.28 ± 4.99 ng/mL
- Mean Plasma Concentration ± SD, 2 hr [4, 6]: 14.92 ± 5.27 ng/mL
- IC50 [1]: 7.3 nM
- Bioactivity relative to the parent compound ([3]; from EC50 values): about 30%
- EC50 ([3]; μ-opiate receptors, in-vitro): 7.3 nM
- Percentage of Active Remaining After Incubation with Liver Microsomes (0 min): 100.0%
- Percentage of Active Remaining After Incubation with Liver Microsomes (20 min): 64.8%
- Percentage of Active Remaining After Incubation with Liver Microsomes (40 min): 51.7%
- Percentage of Active Remaining After Incubation with Liver Microsomes (60 min): 45.7%
- Solubility [2]: soluble

Structure (SMILES): C=CCN1CC[C@]23c4c5ccc(O)c4O[C@H]2[C@H](OCCOCCOCCOCCOCCOC)CC[C@@]3(O)[C@H]1C5 [α-PEG5-Nal, α,β-6-CH3—(OCH2CH2)5—O-naloxol]
- Mean Plasma Concentration ± SD, 1 hr [4, 6]: 27.37 ± 10.82 ng/mL
- Mean Plasma Concentration ± SD, 2 hr [4, 6]: 15.38 ± 6.65 ng/mL
- IC50 [1]: 31.5 nM
- EC50 [3]: 31.5 nM
- Percentage of Active Remaining After Incubation with Liver Microsomes (rat, microsomes, 0 h): 100.0%
- Percentage of Active Remaining After Incubation with Liver Microsomes (rat, microsomes, 20 min): 84.1%
- Percentage of Active Remaining After Incubation with Liver Microsomes (rat, microsomes, 40 min): 75.6%
- Percentage of Active Remaining After Incubation with Liver Microsomes (rat, microsomes, 1 h): 69.2%
- Solubility [2]: soluble

Structure (SMILES): C=CCN1CC[C@]23c4c5ccc(O)c4O[C@H]2[C@H](OCCOCCOCCOCCOCCOCCOCCOC)CC[C@@]3(O)[C@H]1C5 [α-PEG7-Nal, α,β-6-CH3—(OCH2CH2)7—O-naloxol]
- Mean Plasma Concentration ± SD, 1 hr [4, 6]: 40.08 ± 16.61 ng/mL
- Mean Plasma Concentration ± SD, 2 hr [4, 6]: 39.51 ± 9.57 ng/mL
- Normalized Brain Uptake Rate (Mean ± SD) ([5]; listed as PEG7-Nal (α isomer)): 0.94 ± 0.32 pmole/gm brain/sec
- Percentage of Active Remaining After Incubation with Liver Microsomes (rat, microsomes, 0 h): 100.0%
- Percentage of Active Remaining After Incubation with Liver Microsomes (rat, microsomes, 20 min): 87.4%
- Percentage of Active Remaining After Incubation with Liver Microsomes (rat, microsomes, 40 min): 81.6%
- Percentage of Active Remaining After Incubation with Liver Microsomes (rat, microsomes, 1 h): 76.9%
- Solubility [2]: soluble

Structure (SMILES): C=CCN1CC[C@]23c4c5ccc(O)c4O[C@H]2[C@H](OCCOCCOCCOCCOCCOC)CC[C@@]3(O)[C@H]1C5 [β-PEG5-Nal, α,β-6-CH3—(OCH2CH2)5—O-naloxol]
- Mean Plasma Concentration ± SD, 1 hr [4, 6]: 69.34 ± 15.03 ng/mL
- Mean Plasma Concentration ± SD, 2 hr [4, 6]: 36.92 ± 15.84 ng/mL
- IC50 ([1]; naloxone series of compounds): 43.3 nM
- EC50 ([3]; μ-opiate receptors, in-vitro): 43.3 nM
- Solubility [2]: soluble

Structure (SMILES): C=CCN1CC[C@]23c4c5ccc(O)c4O[C@H]2[C@H](OCCOCCOCCOCCOCCOCCOCCOC)CC[C@@]3(O)[C@H]1C5 [β-PEG7-Nal, α,β-6-CH3—(OCH2CH2)7—O-naloxol]
- Mean Plasma Concentration ± SD, 1 hr [4, 6]: 50.41 ± 36.44 ng/mL
- Mean Plasma Concentration ± SD, 2 hr [4, 6]: 50.08 ± 25.28 ng/mL
- Normalized Brain Uptake Rate (Mean ± SD) [5]: 0.70 ± 0.19 pmole/gm brain/sec
- Solubility [2]: soluble
